Measured values published in publication PMC7281265, “Design, Synthesis, and Biological Evaluation of 1,2,3-Triazole-linked triazino[5,6-b]indole-benzene sulfonamide Conjugates as Potent Carbonic Anhydrase I, II, IX, and XIII Inhibitors” (Metabolites, 2020).

How the values were obtained:
[1] = target: hCA IX (Homo sapiens, UniProt Q16790); assay: stopped-flow CO2 hydrase assay, hCA IX
Protocol: (§1) The newly synthesized 1,2,3-triazole linked triazino[5,6-b]indole-benzene sulfonamide hybrids (6a–6o) were evaluated for their carbonic anhydrase inhibitory activity against a panel of carbonic anhydrases, i.e., hCA I, hCA II, hCA IX, and hCA XIII, by the stopped-flow CO2 hydrase assay method. Highly purified CA isoforms were employed, for which the kinetic parameters for the physiologic reaction (CO2 hydration) were measured (see the Experimental section for details), monitoring the color change produced by the formation of H^+ ions (and bicarbonate). […] All the newly synthesized analogs were evaluated in vitro for their inhibitory activity against a panel of recombinant CA isoforms, i.e., hCA I, hCA II, hCA IX, and hCA XIII, obtained inhouse, using the stopped-flow CO2 hydrase assay.
(§2) An SX.18 V-R Applied Photophysics (Oxford, UK) stopped-flow instrument was used to assay the catalytic inhibition of various CA enzymes [32]. […] IC50-s values were calculated from the enzyme activity (as kcat, see Table 2) with respect to the inhibitor concentration.

[2] = target: hCA II (Homo sapiens, UniProt P00918); assay: stopped-flow CO2 hydrase assay, hCA II
Protocol: as §1, §2

[3] = target: hCA XIII (Homo sapiens, UniProt Q8N1Q1); assay: stopped-flow CO2 hydrase assay, hCA XIII
Chain of hCA XIII (Q8N1Q1 whole entry): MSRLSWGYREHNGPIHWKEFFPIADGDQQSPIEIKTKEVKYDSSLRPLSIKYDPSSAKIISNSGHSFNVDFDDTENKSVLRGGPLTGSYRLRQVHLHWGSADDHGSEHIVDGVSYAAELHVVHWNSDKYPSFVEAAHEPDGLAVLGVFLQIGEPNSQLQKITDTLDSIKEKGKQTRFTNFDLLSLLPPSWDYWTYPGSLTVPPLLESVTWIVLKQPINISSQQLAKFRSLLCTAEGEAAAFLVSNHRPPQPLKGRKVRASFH
Protocol: as §1, §2

[4] = target: hCA I (Homo sapiens, UniProt P00915); assay: stopped-flow CO2 hydrase assay, hCA I
Chain of hCA I (P00915 whole entry): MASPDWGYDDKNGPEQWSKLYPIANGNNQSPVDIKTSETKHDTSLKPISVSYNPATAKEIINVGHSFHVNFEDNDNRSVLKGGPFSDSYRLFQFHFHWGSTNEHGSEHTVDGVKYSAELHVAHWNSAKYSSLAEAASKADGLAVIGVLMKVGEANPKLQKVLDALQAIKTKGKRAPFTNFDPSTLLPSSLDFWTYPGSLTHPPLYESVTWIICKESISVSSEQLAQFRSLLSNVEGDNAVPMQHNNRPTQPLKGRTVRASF
Protocol: as §1, §2

Row | Structure (SMILES) | Ki [1] [nM] | Ki [2] [nM] | melting point [°C] | Ki [3] [nM] | Ki [4] [nM]
1 | Cn1c2ccc(Cl)cc2c2nnc(SCc3cn(-c4ccc(S(N)(=O)=O)cc4)nn3)nc21 [Compound 6k] | 331 | 253 | 243 to 248 | 867 | 5140
2 | Cn1c2ccc(F)cc2c2nnc(SCc3cn(-c4ccc(S(N)(=O)=O)cc4)nn3)nc21 [Compound 6f] | 41.3 | 59.6 | 244 to 246 | 835 | 766
3 | CCn1c2ccc(F)cc2c2nnc(SCc3cn(-c4ccc(S(N)(=O)=O)cc4)nn3)nc21 [Compound 6g] | 193 | 63.9 | 246 to 248 | 675 | 699
4 | CC(C)n1c2ccc(Cl)cc2c2nnc(SCc3cn(-c4ccc(S(N)(=O)=O)cc4)nn3)nc21 [Compound 6n] | 321 | 179 | 263 to 265 | 91.3 | 572
5 | CC(C)n1c2ccccc2c2nnc(SCc3cn(-c4ccc(S(N)(=O)=O)cc4)nn3)nc21 [Compound 6d] | 37.8 | 20.9 | 213 to 215 | 65.8 | 315
6 | CCn1c2ccc(Cl)cc2c2nnc(SCc3cn(-c4ccc(S(N)(=O)=O)cc4)nn3)nc21 [Compound 6l] | 150 | 185 | 252 to 256 | 3980 | 2840
7 | CCCn1c2ccccc2c2nnc(SCc3cn(-c4ccc(S(N)(=O)=O)cc4)nn3)nc21 [Compound 6c] | 219 | 88.7 | 261 to 263 | 365 | 3960
8 | C=CCn1c2ccc(F)cc2c2nnc(SCc3cn(-c4ccc(S(N)(=O)=O)cc4)nn3)nc21 [Compound 6j] | 402 | 73.7 | 245 to 247 | 794 | 4590
9 | C=CCn1c2ccc(Cl)cc2c2nnc(SCc3cn(-c4ccc(S(N)(=O)=O)cc4)nn3)nc21 [Compound 6o] | 325 | 97.1 | 261 to 264 | 2300 | 694
10 | CC(C)n1c2ccc(F)cc2c2nnc(SCc3cn(-c4ccc(S(N)(=O)=O)cc4)nn3)nc21 [Compound 6i] | 34.9 | 7.7 | 235 to 237 | 736 | 379
11 | Cn1c2ccccc2c2nnc(SCc3cn(-c4ccc(S(N)(=O)=O)cc4)nn3)nc21 [Compound 6a] | 286 | 65.5 | 235 to 240 | 77.8 | 910
12 | CCn1c2ccccc2c2nnc(SCc3cn(-c4ccc(S(N)(=O)=O)cc4)nn3)nc21 [Compound 6b] | 172 | 72 | 202 to 204 | 69.8 | 642
13 | CCCn1c2ccc(F)cc2c2nnc(SCc3cn(-c4ccc(S(N)(=O)=O)cc4)nn3)nc21 [Compound 6h] | 119 | 683 | 240 to 242 | 1810 | 764
14 | C=CCn1c2ccccc2c2nnc(SCc3cn(-c4ccc(S(N)(=O)=O)cc4)nn3)nc21 [Compound 6e] | 41.1 | 41.7 | 230 to 232 | 627 | 536
15 | CCCn1c2ccc(Cl)cc2c2nnc(SCc3cn(-c4ccc(S(N)(=O)=O)cc4)nn3)nc21 [Compound 6m] | 204 | 61.7 | 257 to 262 | 824 | 6510
